Each structure is given as a SMILES string. Calls of active or inactive are those of the source.

The text below walks through data of ChEMBL document CHEMBL1201862, “PubChem BioAssay data set” (2004).

Assay [1] concerns the target T1, Aminopeptidase N (Plasmodium falciparum FcB1/Columbia, UniProt O96935).
T1 sequence (O96935 whole entry): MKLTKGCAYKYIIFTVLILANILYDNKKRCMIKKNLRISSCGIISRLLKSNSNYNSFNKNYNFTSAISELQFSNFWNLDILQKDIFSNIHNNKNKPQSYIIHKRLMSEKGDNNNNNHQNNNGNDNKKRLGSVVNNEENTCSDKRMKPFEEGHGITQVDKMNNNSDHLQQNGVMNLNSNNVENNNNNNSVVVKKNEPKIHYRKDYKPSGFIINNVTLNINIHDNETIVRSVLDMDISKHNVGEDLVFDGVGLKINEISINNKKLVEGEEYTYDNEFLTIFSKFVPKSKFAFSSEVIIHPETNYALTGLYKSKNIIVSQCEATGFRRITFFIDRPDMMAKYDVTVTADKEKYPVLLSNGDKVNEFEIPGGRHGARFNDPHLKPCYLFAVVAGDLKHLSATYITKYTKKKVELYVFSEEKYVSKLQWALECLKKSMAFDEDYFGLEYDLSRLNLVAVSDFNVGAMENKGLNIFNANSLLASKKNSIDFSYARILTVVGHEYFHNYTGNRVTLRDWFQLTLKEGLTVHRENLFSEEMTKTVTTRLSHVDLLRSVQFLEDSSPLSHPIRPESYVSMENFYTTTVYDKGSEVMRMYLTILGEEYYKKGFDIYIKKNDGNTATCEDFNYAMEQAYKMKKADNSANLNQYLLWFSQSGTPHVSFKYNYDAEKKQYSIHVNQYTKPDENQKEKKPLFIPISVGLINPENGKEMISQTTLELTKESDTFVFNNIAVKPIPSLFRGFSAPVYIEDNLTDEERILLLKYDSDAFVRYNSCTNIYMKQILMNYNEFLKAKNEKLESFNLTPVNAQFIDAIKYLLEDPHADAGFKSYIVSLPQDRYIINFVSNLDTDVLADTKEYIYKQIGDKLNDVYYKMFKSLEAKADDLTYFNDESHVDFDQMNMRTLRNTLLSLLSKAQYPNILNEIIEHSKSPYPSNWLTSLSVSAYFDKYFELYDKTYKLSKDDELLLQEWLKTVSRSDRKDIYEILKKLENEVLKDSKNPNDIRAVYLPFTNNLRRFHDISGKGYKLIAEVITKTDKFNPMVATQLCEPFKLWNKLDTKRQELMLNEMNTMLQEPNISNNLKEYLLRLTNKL
In words: malaria alanyl aminopeptidase activity blockers – biochemical, fluorogenic H-Leu-NHMec substrate, 1536-well (AID 1445). Further details: species or system Plasmodium falciparum 3D7, 3D7.

Assay [2] deals with Dual specificity tyrosine-phosphorylation-regulated kinase 1A (Rattus norvegicus, UniProt Q63470). It counts as biochemical, Homo sapiens.
The nature of assay [3]: HEK-293T cell viability reduction – luminescence, B-cell screen hits, cytotoxicity control for BCR NF-kB inhibitor project, dose response (AID 489021).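 Note: HEK-293T cells carrying an NF-kB luciferase reporter; cells exposed to compound for about 14 hours before viability readout.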 Format: functional, cell-based.
The nature of assay [4]: cells.
Assay [5] addresses T2, Lysine-specific demethylase 4C (Homo sapiens, UniProt Q9H3R0).
T2 sequence (Q9H3R0 whole entry): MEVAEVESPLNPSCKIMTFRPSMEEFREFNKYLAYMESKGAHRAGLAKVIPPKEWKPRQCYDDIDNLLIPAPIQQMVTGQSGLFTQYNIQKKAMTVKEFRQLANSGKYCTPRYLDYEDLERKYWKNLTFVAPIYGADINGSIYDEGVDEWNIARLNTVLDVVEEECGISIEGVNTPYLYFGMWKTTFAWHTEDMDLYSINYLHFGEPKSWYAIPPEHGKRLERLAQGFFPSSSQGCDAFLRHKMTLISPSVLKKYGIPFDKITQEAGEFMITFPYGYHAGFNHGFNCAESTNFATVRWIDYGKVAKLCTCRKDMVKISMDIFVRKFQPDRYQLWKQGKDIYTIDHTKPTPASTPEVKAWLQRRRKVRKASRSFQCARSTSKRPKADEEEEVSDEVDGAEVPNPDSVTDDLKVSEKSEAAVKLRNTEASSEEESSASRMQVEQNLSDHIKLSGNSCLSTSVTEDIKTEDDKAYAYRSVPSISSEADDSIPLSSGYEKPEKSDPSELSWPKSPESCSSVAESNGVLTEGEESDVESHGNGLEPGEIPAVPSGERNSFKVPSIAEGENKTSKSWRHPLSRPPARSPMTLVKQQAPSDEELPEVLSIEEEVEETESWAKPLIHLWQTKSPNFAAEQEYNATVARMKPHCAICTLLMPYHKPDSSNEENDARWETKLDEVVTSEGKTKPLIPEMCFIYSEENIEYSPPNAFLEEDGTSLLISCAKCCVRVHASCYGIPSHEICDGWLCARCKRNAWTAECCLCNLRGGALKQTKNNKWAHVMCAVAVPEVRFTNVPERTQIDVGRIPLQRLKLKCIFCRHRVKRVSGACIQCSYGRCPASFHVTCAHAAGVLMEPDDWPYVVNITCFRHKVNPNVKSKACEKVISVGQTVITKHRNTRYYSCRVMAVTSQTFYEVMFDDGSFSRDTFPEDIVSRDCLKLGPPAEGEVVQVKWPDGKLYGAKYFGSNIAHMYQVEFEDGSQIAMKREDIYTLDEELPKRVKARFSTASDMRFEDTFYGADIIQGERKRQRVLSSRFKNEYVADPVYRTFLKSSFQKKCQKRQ
In words: inhibition of JMJD2C H3K9me3 demethylation – biochemical, DELFIA europium, cherry-picked samples, dose response (AID 488835). It counts as functional.

Assay [6] addresses T3, Leucine aminopeptidase (Plasmodium falciparum 3D7, UniProt Q8IL11).
T3 sequence (Q8IL11 whole entry): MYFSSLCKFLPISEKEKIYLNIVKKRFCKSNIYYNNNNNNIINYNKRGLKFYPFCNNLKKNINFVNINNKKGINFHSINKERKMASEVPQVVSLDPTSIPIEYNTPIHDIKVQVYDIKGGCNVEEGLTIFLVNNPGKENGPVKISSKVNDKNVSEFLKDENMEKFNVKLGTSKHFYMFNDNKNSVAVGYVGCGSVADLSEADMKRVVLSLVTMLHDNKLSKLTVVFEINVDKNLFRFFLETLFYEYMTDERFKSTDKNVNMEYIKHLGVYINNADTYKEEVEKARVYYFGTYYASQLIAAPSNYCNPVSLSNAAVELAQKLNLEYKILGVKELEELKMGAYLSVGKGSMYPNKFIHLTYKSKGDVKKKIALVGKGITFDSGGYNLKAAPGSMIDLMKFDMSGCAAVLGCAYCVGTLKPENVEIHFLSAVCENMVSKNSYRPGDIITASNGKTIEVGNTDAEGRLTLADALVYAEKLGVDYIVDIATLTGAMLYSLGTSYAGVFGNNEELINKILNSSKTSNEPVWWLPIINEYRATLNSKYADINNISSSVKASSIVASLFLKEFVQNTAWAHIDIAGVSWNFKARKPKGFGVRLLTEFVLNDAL
Briefly: P. falciparum M17LAP inhibitors, primary screen, biochemical, fluorogenic H-Leu-NHMec substrate, 1536-well (AID 1619). Format: functional.

In assay [7] the target is Large T antigen (Simian virus 40, UniProt P03070). Format: functional, Betapolyomavirus macacae.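 Note: Confirmatory-stage PubChem screen for compounds that inhibit SV40 T antigen.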
Sequence of Large T antigen (P03070 whole entry): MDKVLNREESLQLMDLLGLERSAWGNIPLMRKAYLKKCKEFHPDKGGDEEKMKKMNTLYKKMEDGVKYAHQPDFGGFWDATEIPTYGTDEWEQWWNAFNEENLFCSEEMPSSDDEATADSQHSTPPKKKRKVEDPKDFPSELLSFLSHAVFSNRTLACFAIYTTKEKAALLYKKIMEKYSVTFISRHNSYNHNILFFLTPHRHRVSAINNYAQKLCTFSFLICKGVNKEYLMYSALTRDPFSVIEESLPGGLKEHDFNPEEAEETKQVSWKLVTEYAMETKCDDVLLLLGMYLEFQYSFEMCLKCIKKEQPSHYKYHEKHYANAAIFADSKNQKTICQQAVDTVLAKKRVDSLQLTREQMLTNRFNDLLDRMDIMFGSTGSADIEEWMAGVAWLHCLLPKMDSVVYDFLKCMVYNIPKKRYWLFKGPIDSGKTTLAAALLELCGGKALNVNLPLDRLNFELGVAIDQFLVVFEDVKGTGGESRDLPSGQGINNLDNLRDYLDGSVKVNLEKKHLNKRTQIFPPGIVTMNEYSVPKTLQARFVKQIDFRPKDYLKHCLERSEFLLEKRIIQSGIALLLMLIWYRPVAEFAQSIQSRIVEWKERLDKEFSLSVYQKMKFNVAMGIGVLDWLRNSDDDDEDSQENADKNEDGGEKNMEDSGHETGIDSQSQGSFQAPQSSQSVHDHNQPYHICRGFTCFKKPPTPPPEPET
Assay [8] in a line: A cytotoxicity screen of small molecule inhibitors of the PhoP region in Salmonella typhi identified in the primary screen. [Related pubchem assays: 1850, 1864, 1985 ]. Format: functional.
Assay [9] has as its target Glyceraldehyde-3-phosphate dehydrogenase (Homo sapiens, UniProt P04406).
The nature of assay [10]: viability of uninfected HEp-2 cells – cell-based, HTS, cytotoxicity control for RSV inhibitor project, dose response (AID 2410). Format: functional. Conditions: human respiratory syncytial virus.
Assay [11] addresses T4, High affinity choline transporter 1 (Homo sapiens, UniProt Q9GZV3).
T4 sequence (Q9GZV3 whole entry): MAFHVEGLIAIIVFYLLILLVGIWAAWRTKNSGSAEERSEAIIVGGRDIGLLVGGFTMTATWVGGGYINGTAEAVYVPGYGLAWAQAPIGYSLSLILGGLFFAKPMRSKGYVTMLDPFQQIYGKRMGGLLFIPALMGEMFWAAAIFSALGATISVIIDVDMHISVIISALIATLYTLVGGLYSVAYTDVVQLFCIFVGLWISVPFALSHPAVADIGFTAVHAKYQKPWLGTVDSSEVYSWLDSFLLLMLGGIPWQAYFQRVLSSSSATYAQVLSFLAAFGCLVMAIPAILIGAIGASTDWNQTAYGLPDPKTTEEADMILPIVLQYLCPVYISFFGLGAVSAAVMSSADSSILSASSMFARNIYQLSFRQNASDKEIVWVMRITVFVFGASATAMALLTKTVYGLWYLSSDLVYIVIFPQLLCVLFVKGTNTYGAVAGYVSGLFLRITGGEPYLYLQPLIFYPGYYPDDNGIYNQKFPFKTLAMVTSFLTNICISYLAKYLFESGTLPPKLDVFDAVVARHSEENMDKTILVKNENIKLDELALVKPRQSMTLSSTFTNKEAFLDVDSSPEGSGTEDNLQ
In words: human choline transporter blockers, potency – cell-based, 5-point CRC, membrane potential dye, dose response (AID 504840). It counts as functional.

Assay [12] addresses T5, Streptokinase A (Streptococcus pyogenes serotype M1, UniProt P10520).
T5 sequence (P10520 whole entry): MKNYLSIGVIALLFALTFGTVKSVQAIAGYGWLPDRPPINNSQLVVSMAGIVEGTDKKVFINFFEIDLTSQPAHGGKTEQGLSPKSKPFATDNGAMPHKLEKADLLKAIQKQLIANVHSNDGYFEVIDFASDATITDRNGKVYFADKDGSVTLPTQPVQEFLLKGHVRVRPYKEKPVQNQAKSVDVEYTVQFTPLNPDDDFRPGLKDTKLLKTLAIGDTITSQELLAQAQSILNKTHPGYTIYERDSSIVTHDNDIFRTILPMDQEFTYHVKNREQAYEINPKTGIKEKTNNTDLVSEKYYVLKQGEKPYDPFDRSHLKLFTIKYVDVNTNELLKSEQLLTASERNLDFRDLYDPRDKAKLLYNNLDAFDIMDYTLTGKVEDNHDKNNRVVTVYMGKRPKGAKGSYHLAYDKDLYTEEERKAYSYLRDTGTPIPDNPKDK
In words: viability-normalized secreted streptokinase activity reduction – plasminogen activation absorbance, OD405, dose response (AID 1914).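 Note: secreted streptokinase activity via plasminogen activation per viability signal from cell pellet.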 It counts as functional, Streptococcus pyogenes M1 GAS.

Assay [13] deals with Streptococcus. Briefly: GAS UMAA2166 growth inhibition – luminescence, BacTiterGlo, counter-screen for streptokinase expression inhibitor project, dose response (AID 1915).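 Note: potency for reduction of bacterial viability or growth.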 It counts as functional, organism-based.
Assay [14] deals with Streptococcus sp. 'group A'. Briefly: Streptococcus pyogenes SK(-)GAS viability under kanamycin – luminescence, BacTiterGlo, confirmation, counter-screen for streptokinase expression inhibitor project, dose response (AID 1900). Format: functional, organism-based. For orientation: The purpose of a counterscreen is to sort out artefacts and off-target activity.

Sequence of Glyceraldehyde-3-phosphate dehydrogenase (P04406 whole entry): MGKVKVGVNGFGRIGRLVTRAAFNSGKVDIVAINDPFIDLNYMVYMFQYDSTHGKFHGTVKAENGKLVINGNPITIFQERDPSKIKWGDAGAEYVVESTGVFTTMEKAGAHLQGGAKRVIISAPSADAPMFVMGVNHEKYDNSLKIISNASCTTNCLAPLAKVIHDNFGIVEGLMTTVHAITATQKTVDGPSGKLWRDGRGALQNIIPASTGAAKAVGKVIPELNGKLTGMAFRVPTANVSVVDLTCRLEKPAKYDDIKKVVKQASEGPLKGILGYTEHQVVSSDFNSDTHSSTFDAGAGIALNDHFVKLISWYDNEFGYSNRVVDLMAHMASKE

For `COc1ccc2cc3cc(C(=O)NCC4CCCO4)oc3nc2c1` (stereo unspecified), the IC50 (commonly the concentration that gives 50% inhibition) in assay [1] is 79.3 µM (active). Moreover, in [2], the half-maximal activity concentration (AC50) (as a rule, the midpoint of the concentration-response curve, whichever way the signal moves) was 7.86 µM (active).

`COc1ccc(-c2csc3nc(-c4cccnc4)nc(N4CCC(C(N)=O)CC4)c23)cc1OC`: the IC50 in [3] was 43.7 µM (inactive).

For the compound `COc1ccc2[nH]cc(C(=O)CN3CCN(C4CCCCC4)CC3)c2c1`, in [4], the IC50 is 36.6 µM (active).

Consider `CC(=O)c1cc2c(O)c(O)ccc2o1`, for which the AC50 in [5] was 9.2 µM (active). Besides, the IC50 is 75.4 µM (active) in [6] and 18.5 µM (active) in [7].

Consider `COc1cc2[nH]c(=S)n(CC3CCCO3)c(=O)c2cc1OC` (stereo unspecified), for which, in assay [8], the EC50 (as a rule, the concentration that produces a half-maximal response) is > 50 µM (active).

Consider `CC(=O)Oc1ccc(-c2cccc(C(=O)NCC(=O)O)c2)cc1`, for which, in [9], the IC50 was > 100 µM (not active).

Consider `O=C(CN1C2=NCCCN2c2ccccc21)c1ccc2c(c1)OCO2`, for which the EC50 in [8] was > 50 µM (active).

As to `C/C(=N\Nc1nc(Nc2ccccc2)nc(N2CCOCC2)n1)c1cccs1`, the IC50 in [3] was > 80 µM (inactive).

For the compound `CCOc1ccc(N2C(=O)C(CC(=O)Nc3ccc(F)cc3)N(Cc3ccccn3)C2=S)cc1` (stereo unspecified), the IC50 in [4] was 23.9 µM (active). For the same compound, the CC50 (commonly the concentration giving 50% cytotoxicity) in assay [10] is 32.9 µM (active).

For the compound `COc1cc(/C=N/NC(=O)COc2c(C)cc([N+](=O)[O-])cc2C)ccc1OC(=O)c1ccccc1`, the IC50 in assay [4] is 17.9 µM (active). In addition, the CC50 in [10] was 41.7 µM (active).

Consider `COC(=O)Cc1cc(=O)oc2cc(O)ccc12`, for which the IC50 in [1] is 36.6 µM (active).

Consider `Cc1cc(CN(C)C(=O)c2cc(COc3ccc(F)cc3Cl)on2)n[nH]1`, for which the IC50 is 24.6 µM (active) in assay [4] and 9.89 µM (active) in [11]. The CC50 in [10] is 39.1 µM (active).

Regarding `O=C(CN1C(=O)c2ccccc2C1=O)Nc1ccc2c(c1)OCO2`, the IC50 in [6] was 9.43 µM (active).

For the compound `CCOc1ccc(NC(S)=Nc2cc(C)[nH]n2)cc1`, the concentration giving a half-maximal response (EC50) in assay [8] was > 50 µM (active).

Turning to `Cc1nc(SCC(=O)Nc2ccc3c(c2)OCCO3)nc(C)c1C`, in assay [6], the 50% inhibitory concentration (IC50) was 43.5 µM (active).

Take `N#CC(C(=O)C12CC3CC(CC(C3)C1)C2)c1nc2ccccc2[nH]1` (stereo unspecified): the EC50 is 66 µM (active) in [12], > 150 µM (not active) in assay [13], 5.14 µM (active) in assay [14] and > 50 µM (active) in assay [8].
